# Test results as given in patent US9227971B2, “Pyrazolo[1,5-a]pyrimidine compounds as mTOR inhibitors” (Merck Sharp & Dohme Corp., priority 2010, dated 2016).
# Like-named read-outs stand apart in the source and are kept apart here.
# Legend:
# [1] = tested on: phosphorylated AKT Ser473 (pAKT S473), mTORC2 activity, PC3 cells; experiment: mTOR target engagement assay, immunofluorescent cell-based, pAKT S473 readout (mTORC2 activity)
# Method: (§1) The target engagement of mTOR kinase inhibitors was evaluated using an immunofluorescent cell-based assay. In this assay, inhibition of mTORC1 activity was measured by the reduction in the level of phosphorylated 4E-BP1^[…] (p4E-BP1 Thr37/46), and inhibition of mTORC2 activity was measured by the reduction of phosphorylated AKT^Ser473 (pAKT S473).
# PC3 cells (prostate tumor cell-line that contains a mutation in the tumor suppressor PTEN, that promotes the phosphorylation and activation of AKT and 4E-BP1) were used in the immunofluorescence assay. […] PC3 cells were then treated with 40 μl of the serially diluted test compounds (in 5% fetal bovine serum, F12 medium containing 0.25% DMSO) for ninety minutes at 37° C. The test compound solution was removed, and the plates were washed gently two times with 25 μl phosphate buffered saline (PBS). […] 5% Goat serum in PBS/0.3% Triton was used to block non-specific binding (60 minutes).
# The primary antibodies targeting pAKT S473 and p4E-BP1 Thr37/46 were diluted into PBS/0.3% Triton and incubated with the cells overnight at 4° C. […] Plates were washed three times with PBS/0.1% Tween 20 before adding the secondary antibody at a 1:200 dilution.
# Finally, the plates were washed three times with PBS/0.1% Tween 20 and the fluorescent intensity was read using an Analyst HT from Molecular Devices.
# [2] = tested on: phosphorylated 4E-BP1 Thr37/46 (p4E-BP1 Thr37/46), mTORC1 activity, PC3 cells; experiment: mTOR target engagement assay, immunofluorescent cell-based, p4E-BP1 Thr37/46 readout (mTORC1 activity); settings: read-out: p4E-BP1 Thr37/46 IC50
# Method: as §1
# PC3 cells (prostate tumor cell-line that contains a mutation in the tumor suppressor PTEN, that promotes the phosphorylation and activation of AKT and 4E-BP1) were used in the immunofluorescence assay. PC3 cells were seeded on 384 well plates (black clear bottom, Matrix #4332) overnight. PC3 cells were then treated with 40 μl of the serially diluted test compounds (in 5% fetal bovine serum, F12 medium containing 0.25% DMSO) for ninety minutes at 37° C. The test compound solution was removed, and the plates were washed gently two times with 25 μl phosphate buffered saline (PBS). The cells were fixed by adding 25 μl of Prefer reagent (from Anatech LTD, Cat#414, a glyoxal fixative for fixing proteins within a cell) for sixty minutes followed by three washes with PBS. 5% Goat serum in PBS/0.3% Triton was used to block non-specific binding (60 minutes).
# The primary antibodies targeting pAKT S473 and p4E-BP1 Thr37/46 were diluted into PBS/0.3% Triton and incubated with the cells overnight at 4° C. The antibodies targeting pAKTS473 (Cat#4085, Cell signaling) and p4E-BP1 Thr37/46 (Cat#2855, Cell signaling) were used at a 1:100 dilution. Plates were washed three times with PBS/0.1% Tween 20 before adding the secondary antibody at a 1:200 dilution. (goat anti-rabbit containing a fluorescent label, Alexa Fluor 488, Cat#A11008, Invitrogen) in PBS/0.3% Triton for 60 minutes.
# Finally, the plates were washed three times with PBS/0.1% Tween 20 and the fluorescent intensity was read using an Analyst HT from Molecular Devices. The fluorescent intensity values from the serially diluted compound treatment group were analyzed using the Xlfit 4 program ([…]) (Formula 205: Y=Bottom+(Top-Bottom)/(1+(IC50/X)^Hillslope) to generate the IC50 value. Where Top is the maximum signal without Compound (+DMSO only) and Bottom represents maximum inhibition. Y is the fluorescence at some compound concentration. The control used to determine the fluorescent intensities for 100% pAKT S473 or 100% phosphorylated p4E-BP1 Thr37/46 were measured from untreated wells that contained only DMSO, instead of test compound.
# [3] = Homo sapiens, PC-3, PC3 cells, compound treatment ninety minutes at 37° C.
# [4] = Homo sapiens, PC-3, Table 3-1, PC3 cells
# [5] = Homo sapiens, PC-3, Table 6-1, PC3 cells
molecule,measurement,setting,value
"CS(=O)(=O)c1c([C@@H]2C[C@H]3CC[C@@H](C2)N3c2noc(=O)[nH]2)nc2c(-c3ccc(-c4ccccc4)nc3)cnn2c1N [Compound 8.74, 3-((1R,3s,5S)-3-(7-amino-6-(methylsulfonyl)-3-(6-phenylpyridin-3-yl)pyrazolo[1,5-a]pyrimidin-5-yl)-8-azabicyclo[3.2.1]octan-8-yl)-1,2,4-oxadiazol-5(4H)-one]",IC50,"[1]; Homo sapiens, PC-3, PC3 cells",1000 to 10000 nM
same,IC50,"[2]; Homo sapiens, PC-3, PC3 cells",> 10000 nM
"CC(=O)c1c([C@@H]2C[C@H]3CC[C@@H](C2)N3C(=O)c2cnccc2O)nc2c(-c3ccc(-c4ccccc4)nc3)cnn2c1N [Compound 1.1.51, 1-(7-amino-5-((1R,3s,5S)-8-(4-hydroxynicotinoyl)-8-azabicyclo[3.2.1]octan-3-yl)-3-(6-phenylpyridin-3-yl)pyrazolo[1,5-a]pyrimidin-6-yl)ethanone]",IC50,[1]; [3],100 to 1000 nM
same,IC50,[2]; [3],100 to 1000 nM
"CS(=O)(=O)c1c([C@@H]2C[C@H]3CC[C@@H](C2)N3C(=O)c2nnc[nH]2)nc2c(-c3cnn(-c4ccccn4)c3)cnn2c1N [Compound 3.123, ((1R,3s,5S)-3-(7-amino-6-(methylsulfonyl)-3-(1-(pyridin-2-yl)-1H-pyrazol-4-yl)pyrazolo[1,5-a]pyrimidin-5-yl)-8-azabicyclo[3.2.1]octan-8-yl)(4H-1,2,4-triazol-3-yl)methanone]",IC50,[1]; [4],100 to 1000 nM
same,IC50,[2]; [4],100 to 1000 nM
"CC(=O)c1c([C@@H]2C[C@H]3CC[C@@H](C2)N3C(=O)c2nnc[nH]2)nc2c(-c3ccc(-c4c(F)cccc4F)nc3)cnn2c1N [Compound 1.1.147, 1-(5-((1R,3s,5S)-8-(4H-1,2,4-triazole-3-carbonyl)-8-azabicyclo[3.2.1]octan-3-yl)-7-amino-3-(6-(2,6-difluorophenyl)pyridin-3-yl)pyrazolo[1,5-a]pyrimidin-6-yl)ethanone]",IC50,[1]; [3],1 to 100 nM
same,IC50,[2]; [3],1 to 100 nM
"Nc1c(C2CC2)c([C@@H]2C[C@H]3CC[C@@H](C2)N3C(=O)c2nnc[nH]2)nc2c(-c3ccc(-c4ccc(OC(F)F)cc4)nc3)cnn12 [Compound 4.15, ((1R,3s,5S)-3-(7-amino-6-cyclopropyl-3-(6-(4-(difluoromethoxy)phenyl)pyridin-3-yl)pyrazolo[1,5-a]pyrimidin-5-yl)-8-azabicyclo[3.2.1]octan-8-yl)(4H-1,2,4-triazol-3-yl)methanone]",IC50,[1]; [3],100 to 1000 nM
same,IC50,[2]; [3],100 to 1000 nM
"1-((1R,3s,5S)-3-(7-amino-3-(6-(4-methoxy-(D3)-phenyl)pyridin-3-yl)-6-(methylsulfonyl)pyrazolo[1,5-a]pyrimidin-5-yl)-8-azabicyclo[3.2.1]octan-8-yl)-2-hydroxyethanone [Compound 3.67]",IC50,"[1]; Table 3-1, PC3 cells",1 to 100 nM
same,IC50,"[2]; Table 3-1, PC3 cells",100 to 1000 nM
"Nc1cc([C@@H]2C[C@H]3CC[C@@H](C2)N3C(=O)c2nnc[nH]2)nc2c(-c3ccc(C4(O)CCC4)nc3)cnn12 [Compound 7.44, ((1R,3s,5S)-3-(7-amino-3-(6-(1-hydroxycyclobutyl)pyridin-3-yl)pyrazolo[1,5-a]pyrimidin-5-yl)-8-azabicyclo[3.2.1]octan-8-yl)(4H-1,2,4-triazol-3-yl)methanone]",IC50,"[2]; Homo sapiens, PC-3, Table 7-8, PC3 cells",1000 to 10000 nM
"COc1cc(-c2ccc(-c3cnn4c(N)c(C5CC5)c([C@@H]5C[C@H]6CC[C@@H](C5)N6C(=O)c5nnc[nH]5)nc34)cn2)ccc1F [Compound 4.11, ((1R,3a,5S)-3-(7-amino-6-cyclopropyl-3-(6-(4-fluoro-3-methoxyphenyl)pyridin-3-yl)pyrazolo[1,5-a]pyrimidin-5-yl)-8-azabicyclo[3.2.1]octan-8-yl)(4H-1,2,4-triazol-3-yl)methanone]",IC50,[2]; [3],> 10000 nM
"CC(=O)OCC(=O)N1[C@@H]2CC[C@H]1C[C@H](c1nc3c(-c4ccc(-c5ncc[nH]5)nc4)cnn3c(N)c1C(C)=O)C2 [Compound 6.9, 2-((1R,3s,5S)-3-(3-(6-(1H-imidazol-2-yl)pyridin-3-yl)-6-acetyl-7-aminopyrazolo[1,5-a]pyrimidin-5-yl)-8-azabicyclo[3.2.1]octan-8-yl)-2-oxoethyl acetate]",IC50,[1]; [5],100 to 1000 nM
"CS(=O)(=O)c1c([C@@H]2C[C@H]3CC[C@@H](C2)N3C(=O)CO)nc2c(-c3ccc(C4(O)CCC4)nc3)cnn2c1N [Compound 7.28, 1-((1R,3s,5S)-3-(7-amino-3-(6-(1-hydroxycyclobutyl)pyridin-3-yl)-6-(methylsulfonyl)pyrazolo[1,5-a]pyrimidin-5-yl)-8-azabicyclo[3.2.1]octan-8-yl)-2-hydroxyethanone]",IC50,"[1]; Table 7-2, PC3 cells",100 to 1000 nM
"CC(=O)c1c([C@@H]2C[C@H]3CC[C@@H](C2)N3C(=O)CO)nc2c(-c3cnc(-c4ncc[nH]4)c(F)c3)cnn2c1N [Compound 6.28, 1-((1R,3s,5S)-3-(6-acetyl-7-amino-3-(5-fluoro-6-(1H-imidazol-2-yl)pyridin-3-yl)pyrazolo[1,5-a]pyrimidin-5-yl)-8-azabicyclo[3.2.1]octan-8-yl)-2-hydroxyethanone]",IC50,[1]; [5],1 to 100 nM
"CC(=O)c1c(N2CC3CCC(C2)N3C(=O)[C@@H](C)O)nc2c(-c3ccc(-c4ccccc4)nc3)cnn2c1N [Compound 8.2, (2R)-1-(3-(6-acetyl-7-amino-3-(6-phenylpyridin-3-yl)pyrazolo[1,5-a]pyrimidin-5-yl)-3,8-diazabicyclo[3.2.1]octan-8-yl)-2-hydroxypropan-1-one]",IC50,"[1]; Homo sapiens, PC-3, PC3 cells",100 to 1000 nM
"CC(=O)c1c([C@@H]2C[C@H]3CC[C@@H](C2)N3C(=O)CO)nc2c(-c3cnc(-c4ncc[nH]4)c(C)c3)cnn2c1N [Compound 6.33, 1-((1R,3s,5S)-3-(3-(6-(1H-imidazol-2-yl)-5-methylpyridin-3-yl)-6-acetyl-7-aminopyrazolo[1,5-a]pyrimidin-5-yl)-8-azabicyclo[3.2.1]octan-8-yl)-2-hydroxyethanone]",IC50,[1]; [5],1000 to 10000 nM
"CC(=O)c1c(N2CC3CCC(C2)N3C(=O)c2nnc[nH]2)nc2c(-c3ccc(-c4ccccc4)nc3)cnn2c1N [Compound 8.1, 1-(5-(8-(4H-1,2,4-triazole-3-carbonyl)-3,8-diazabicyclo[3.2.1]octan-3-yl)-7-amino-3-(6-phenylpyridin-3-yl)pyrazolo[1,5-a]pyrimidin-6-yl)ethanone]",IC50,"[1]; Homo sapiens, PC-3, PC3 cells",100 to 1000 nM
"CCOC(=O)Nc1ccc(-c2cnn3c(N)c(C(C)=O)c([C@@H]4C[C@H]5CC[C@@H](C4)N5C(=O)CO)nc23)cn1 [Compound 8.77, ethyl 5-(6-acetyl-7-amino-5-((1R,3s,5S)-8-(2-hydroxyacetyl)-8-azabicyclo[3.2.1]octan-3-yl)pyrazolo[1,5-a]pyrimidin-3-yl)pyridin-2-ylcarbamate]",IC50,"[1]; Homo sapiens, PC-3, PC3 cells",100 to 1000 nM
"CC(=O)c1c([C@@H]2C[C@H]3CC[C@@H](C2)N3C(=O)C(C)(C)O)nc2c(-c3ccc(-c4nccs4)nc3)cnn2c1N [Compound 1.1.35, 1-((1R,3s,5S)-3-(6-acetyl-7-amino-3-(6-(thiazol-2-yl)pyridin-3-yl)pyrazolo[1,5-a]pyrimidin-5-yl)-8-azabicyclo[3.2.1]octan-8-yl)-2-hydroxy-2-methylpropan-1-one]",IC50,[1]; [3],100 to 1000 nM
"CC(=O)c1c(N2CC3CCC2CN3C(=O)[C@@H](C)O)nc2c(-c3ccc(-c4ccccc4)nc3)cnn2c1N (stereo partly drawn) [Compound 8.4, (2R)-1-(5-(6-acetyl-7-amino-3-(6-phenylpyridin-3-yl)pyrazolo[1,5-a]pyrimidin-5-yl)-2,5-diazabicyclo[2.2.2]octan-2-yl)-2-hydroxypropan-1-one]",IC50,"[1]; Homo sapiens, PC-3, PC3 cells",1000 to 10000 nM
